Measurements from patent publication US20240239861A1, “GLUCAGON-RECEPTOR SELECTIVE POLYPEPTIDES AND METHODS OF USE THEREOF” (i2O Therapeutics, Inc., priority 2016, published 2024).
Where a SMILES comes first, the peptide text is derived from it. [ ]: non-standard residue; d: D form. Aib = CC(C)(N)C(=O)O

Key:
human GCGR = human GCGR (Homo sapiens, UniProt P47871); assay: Peptide-receptor mediated cAMP accumulation (LANCE Ultra cAMP) in CHO-K1 cells transfected with human GCGR; format: cell-based; settings: Table 3
human GLP-1R = human GLP-1R (Homo sapiens, UniProt P43220); assay: Peptide-receptor mediated cAMP accumulation (LANCE Ultra cAMP) in CHO-K1 cells transfected with human GLP-1R; format: cell-based; settings: hGLP1 pEC50 (cAMP mean (n = 3): 11 point curve starting at 1 nM, Table 3)
Chain of human GLP-1R (P43220 24-463): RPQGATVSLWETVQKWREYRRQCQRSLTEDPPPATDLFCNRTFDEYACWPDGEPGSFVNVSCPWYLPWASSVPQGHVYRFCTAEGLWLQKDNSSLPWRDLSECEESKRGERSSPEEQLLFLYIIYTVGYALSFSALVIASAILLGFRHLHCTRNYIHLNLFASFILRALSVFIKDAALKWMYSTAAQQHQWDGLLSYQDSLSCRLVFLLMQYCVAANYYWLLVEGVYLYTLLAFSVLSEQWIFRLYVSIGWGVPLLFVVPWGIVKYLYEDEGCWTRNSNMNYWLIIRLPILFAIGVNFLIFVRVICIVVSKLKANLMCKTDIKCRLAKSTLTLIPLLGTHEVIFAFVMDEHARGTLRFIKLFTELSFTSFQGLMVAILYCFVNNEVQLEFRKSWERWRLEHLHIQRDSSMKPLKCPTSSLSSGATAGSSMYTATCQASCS

Chain of human GCGR (P47871 26-477): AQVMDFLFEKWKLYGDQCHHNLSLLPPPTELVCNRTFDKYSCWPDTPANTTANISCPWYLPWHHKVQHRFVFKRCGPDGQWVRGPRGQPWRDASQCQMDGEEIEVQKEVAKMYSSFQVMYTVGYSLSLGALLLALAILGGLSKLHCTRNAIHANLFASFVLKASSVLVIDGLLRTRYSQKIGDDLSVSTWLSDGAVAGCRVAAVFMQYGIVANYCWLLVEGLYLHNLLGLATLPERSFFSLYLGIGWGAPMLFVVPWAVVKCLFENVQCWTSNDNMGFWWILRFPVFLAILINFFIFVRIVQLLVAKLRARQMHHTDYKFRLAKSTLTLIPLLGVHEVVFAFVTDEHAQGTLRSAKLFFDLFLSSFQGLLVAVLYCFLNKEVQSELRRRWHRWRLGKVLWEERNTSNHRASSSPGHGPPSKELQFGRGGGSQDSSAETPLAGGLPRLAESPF

Row | EC50 (human GCGR) [pM] | EC50 (human GLP-1R) [pM] | Compound
1 | 12.6 | > 1000 | CC(C)C[C@H](NC(=O)[C@H](Cc1ccc(O)cc1)NC(=O)[C@H](CCCCN)NC(=O)[C@H](CO)NC(=O)[C@H](Cc1ccc(O)cc1)NC(=O)[C@H](CC(=O)O)NC(=O)[C@H](CO)NC(=O)[C@@H](NC(=O)[C@H](Cc1ccccc1)NC(=O)[C@@H](NC(=O)CNC(=O)[C@H](Cc1c[nH]cn1)NC(=O)[C@H](CO)NC(=O)[C@@H](N)Cc1ccc(O)cc1)[C@@H](C)O)[C@@H](C)O)C(=O)N[C@@H](CC(=O)O)C(=O)NC(C)(C)C(=O)N[C@@H](C)C(=O)N[C@@H](CCCNC(=N)N)C(=O)N[C@@H](C)C(=O)N[C@@H](CCC(N)=O)C(=O)N[C@@H](CCC(=O)O)C(=O)N[C@@H](Cc1ccccc1)C(=O)N[C@H](C(=O)NC(C)(C)C(=O)N[C@@H](Cc1c[nH]c2ccccc12)C(=O)N[C@@H](CC(C)C)C(=O)N[C@@H](CCC(=O)O)C(=O)N[C@@H](CC(=O)O)C(=O)N[C@@H](CCC(=O)O)C(=O)N1CCC[C@H]1C(=O)N[C@@H](CCCCN)C(=O)N[C@@H](CO)C(=O)N[C@@H](CCCCN)C(=O)N[C@@H](CO)C(=O)N1CCC[C@H]1C(=O)N1CCC[C@H]1C(=O)N1CCC[C@H]1C(=O)N[C@@H](CO)C(N)=O)C(C)C [Compound A67] (H-YSHGTFTSDYSKYLD[Aib]ARAQEFV[Aib]WLEDEPKSKSPPPS-NH2; N-terminus assumed)
2 | 5.01 | > 1000 | CC(C)C[C@H](NC(=O)[C@H](Cc1ccc(O)cc1)NC(=O)[C@H](CCCCN)NC(=O)[C@H](CO)NC(=O)[C@H](Cc1ccc(O)cc1)NC(=O)[C@H](CC(=O)O)NC(=O)[C@H](CO)NC(=O)[C@@H](NC(=O)[C@H](Cc1ccccc1)NC(=O)[C@@H](NC(=O)CNC(=O)[C@H](Cc1c[nH]cn1)NC(=O)[C@H](CO)NC(=O)[C@@H](N)Cc1ccc(O)cc1)[C@@H](C)O)[C@@H](C)O)C(=O)N[C@@H](CC(=O)O)C(=O)NC(C)(C)C(=O)N[C@@H](C)C(=O)N[C@@H](CCCNC(=N)N)C(=O)N[C@@H](C)C(=O)N[C@@H](CCC(N)=O)C(=O)N[C@@H](CCC(=O)O)C(=O)N[C@@H](Cc1ccccc1)C(=O)N[C@H](C(=O)NC(C)(C)C(=O)N[C@@H](Cc1c[nH]c2ccccc12)C(=O)N[C@@H](CC(C)C)C(=O)N[C@@H](CCC(=O)O)C(=O)N[C@@H](CC(=O)O)C(=O)N[C@@H](CCC(=O)O)C(=O)N1CCC[C@H]1C(=O)N[C@@H](CCCCN)C(=O)N[C@@H](CO)C(=O)N[C@@H](CCCCN)C(=O)N[C@@H](CCC(=O)O)C(=O)N1CCC[C@H]1C(=O)N1CCC[C@H]1C(=O)N1CCC[C@H]1C(=O)N[C@@H](CO)C(N)=O)C(C)C [Compound A68] (H-YSHGTFTSDYSKYLD[Aib]ARAQEFV[Aib]WLEDEPKSKEPPPS-NH2; N-terminus assumed)
3 | 1.58 | > 1000 | CC(C)C[C@H](NC(=O)[C@H](Cc1ccc(O)cc1)NC(=O)[C@H](CCCCN)NC(=O)[C@H](CO)NC(=O)[C@H](Cc1ccc(O)cc1)NC(=O)[C@H](CC(=O)O)NC(=O)[C@H](CO)NC(=O)[C@@H](NC(=O)[C@H](Cc1ccccc1)NC(=O)[C@@H](NC(=O)CNC(=O)[C@H](Cc1c[nH]cn1)NC(=O)[C@H](CO)NC(=O)[C@@H](N)Cc1ccc(O)cc1)[C@@H](C)O)[C@@H](C)O)C(=O)N[C@@H](CC(=O)O)C(=O)N[C@@H](CO)C(=O)N[C@@H](C)C(=O)N[C@@H](CCCNC(=N)N)C(=O)N[C@@H](C)C(=O)N[C@@H](CCC(N)=O)C(=O)N[C@@H](CCC(=O)O)C(=O)N[C@@H](Cc1ccccc1)C(=O)N[C@H](C(=O)N[C@@H](CCCCN)C(=O)N[C@@H](Cc1c[nH]c2ccccc12)C(=O)N[C@@H](CC(C)C)C(=O)N[C@@H](CCC(=O)O)C(=O)N[C@@H](CC(=O)O)C(=O)N[C@@H](CCC(=O)O)C(=O)N1CCC[C@H]1C(=O)N[C@@H](CCCCN)C(=O)N[C@@H](CO)C(=O)N[C@@H](CCCCN)C(=O)N[C@@H](CCC(=O)O)C(=O)N1CCC[C@H]1C(=O)N1CCC[C@H]1C(=O)N1CCC[C@H]1C(=O)N[C@@H](CO)C(=O)O)C(C)C [Compound A69] (H-YSHGTFTSDYSKYLDSARAQEFVKWLEDEPKSKEPPPS-OH; N-terminus assumed)
4 | 2 | > 1000 | CC(C)C[C@H](NC(=O)[C@H](Cc1ccc(O)cc1)NC(=O)[C@H](CCCCN)NC(=O)[C@H](CO)NC(=O)[C@H](Cc1ccc(O)cc1)NC(=O)[C@H](CC(=O)O)NC(=O)[C@H](CO)NC(=O)[C@@H](NC(=O)[C@H](Cc1ccccc1)NC(=O)[C@@H](NC(=O)CNC(=O)[C@H](Cc1c[nH]cn1)NC(=O)[C@H](CO)NC(=O)[C@@H](N)Cc1ccc(O)cc1)[C@@H](C)O)[C@@H](C)O)C(=O)N[C@@H](CC(=O)O)C(=O)N[C@@H](CO)C(=O)N[C@@H](C)C(=O)N[C@@H](CCCNC(=N)N)C(=O)N[C@@H](C)C(=O)N[C@@H](CCC(N)=O)C(=O)N[C@@H](CCC(=O)O)C(=O)N[C@@H](Cc1ccccc1)C(=O)N[C@H](C(=O)N[C@@H](CCCCN)C(=O)N[C@@H](Cc1c[nH]c2ccccc12)C(=O)N[C@@H](CC(C)C)C(=O)N[C@@H](CCC(=O)O)C(=O)N[C@@H](CC(=O)O)C(=O)N[C@@H](CCC(=O)O)C(=O)N1CCC[C@H]1C(=O)N[C@@H](CCCCN)C(=O)N[C@@H](CO)C(=O)N[C@@H](CCCCN)C(=O)N[C@@H](C)C(=O)N1CCC[C@H]1C(=O)N1CCC[C@H]1C(=O)N1CCC[C@H]1C(=O)N[C@@H](CO)C(=O)O)C(C)C [Compound A71] (H-YSHGTFTSDYSKYLDSARAQEFVKWLEDEPKSKAPPPS-OH; N-terminus assumed)
5 | 2.51 | > 1000 | CC(C)C[C@H](NC(=O)[C@H](Cc1ccc(O)cc1)NC(=O)[C@H](CCCCN)NC(=O)[C@H](CO)NC(=O)[C@H](Cc1ccc(O)cc1)NC(=O)[C@H](CC(=O)O)NC(=O)[C@H](CO)NC(=O)[C@@H](NC(=O)[C@H](Cc1ccccc1)NC(=O)[C@@H](NC(=O)CNC(=O)[C@H](Cc1c[nH]cn1)NC(=O)[C@H](CO)NC(=O)[C@@H](N)Cc1ccc(O)cc1)[C@@H](C)O)[C@@H](C)O)C(=O)N[C@@H](CC(=O)O)C(=O)N[C@@H](CO)C(=O)N[C@@H](C)C(=O)N[C@@H](CCCNC(=N)N)C(=O)N[C@@H](C)C(=O)N[C@@H](CCC(N)=O)C(=O)N[C@@H](CCC(=O)O)C(=O)N[C@@H](Cc1ccccc1)C(=O)N[C@H](C(=O)N[C@@H](CCCCN)C(=O)N[C@@H](Cc1c[nH]c2ccccc12)C(=O)N[C@@H](CC(C)C)C(=O)N[C@@H](CCC(=O)O)C(=O)N[C@@H](CC(=O)O)C(=O)N[C@@H](CCC(=O)O)C(=O)N1CCC[C@H]1C(=O)N[C@@H](CCCCN)C(=O)N[C@@H](CO)C(=O)N[C@@H](CCCCN)C(=O)N[C@@H](C)C(=O)N1CCC[C@H]1C(=O)N1CCC[C@H]1C(=O)N1CCC[C@H]1C(=O)N[C@@H](CO)C(N)=O)C(C)C [Compound A74] (H-YSHGTFTSDYSKYLDSARAQEFVKWLEDEPKSKAPPPS-NH2; N-terminus assumed)

Row | Compound | EC50 (human GCGR) [pM] | EC50 (human GLP-1R) [pM]
6 | CC(C)C[C@H](NC(=O)[C@H](Cc1ccc(O)cc1)NC(=O)[C@H](CCCCN)NC(=O)[C@H](CO)NC(=O)[C@H](Cc1ccc(O)cc1)NC(=O)[C@H](CC(=O)O)NC(=O)[C@H](CO)NC(=O)[C@@H](NC(=O)[C@H](Cc1ccccc1)NC(=O)[C@@H](NC(=O)CNC(=O)[C@H](Cc1c[nH]cn1)NC(=O)[C@H](CO)NC(=O)[C@@H](N)Cc1c[nH]c2ccccc12)[C@@H](C)O)[C@@H](C)O)C(=O)N[C@@H](CC(=O)O)C(=O)NC(C)(C)C(=O)N[C@@H](CCCCN)C(=O)N[C@@H](CCCNC(=N)N)C(=O)N[C@@H](C)C(=O)N[C@@H](CCC(N)=O)C(=O)N[C@@H](CCC(=O)O)C(=O)N[C@@H](Cc1ccccc1)C(=O)N[C@H](C(=O)NC(C)(C)C(=O)N[C@@H](Cc1c[nH]c2ccccc12)C(=O)N[C@@H](CC(C)C)C(=O)N[C@@H](CCC(=O)O)C(=O)N[C@@H](CC(=O)O)C(=O)N[C@@H](CCC(=O)O)C(=O)N1CCC[C@H]1C(=O)N[C@@H](CO)C(=O)N[C@@H](CO)C(=O)NCC(=O)N[C@@H](C)C(=O)N1CCC[C@H]1C(=O)N1CCC[C@H]1C(=O)N1CCC[C@H]1C(=O)N[C@@H](CO)C(=O)O)C(C)C [Compound A75] (H-WSHGTFTSDYSKYLD[Aib]KRAQEFV[Aib]WLEDEPSSGAPPPS-OH; N-terminus assumed) | 5.01 | > 1000
7 | CC(C)C[C@H](NC(=O)[C@H](Cc1ccc(O)cc1)NC(=O)[C@H](CCCCN)NC(=O)[C@H](CO)NC(=O)[C@H](Cc1ccc(O)cc1)NC(=O)[C@H](CC(=O)O)NC(=O)[C@H](CO)NC(=O)[C@@H](NC(=O)[C@H](Cc1ccccc1)NC(=O)[C@@H](NC(=O)CNC(=O)[C@H](Cc1c[nH]cn1)NC(=O)[C@H](CO)NC(=O)[C@@H](N)Cc1ccc(O)cc1)[C@@H](C)O)[C@@H](C)O)C(=O)N[C@@H](CC(=O)O)C(=O)NC(C)(C)C(=O)N[C@@H](CCCCN)C(=O)N[C@H](C(=O)N[C@@H](C)C(=O)N[C@@H](CCC(N)=O)C(=O)N[C@@H](CCC(=O)O)C(=O)N[C@@H](Cc1ccccc1)C(=O)N[C@H](C(=O)NC(C)(C)C(=O)N[C@@H](Cc1c[nH]c2ccccc12)C(=O)N[C@@H](CC(C)C)C(=O)N[C@@H](CCC(=O)O)C(=O)N[C@@H](CC(=O)O)C(=O)N[C@@H](CCC(=O)O)C(=O)N1CCC[C@H]1C(=O)N[C@@H](CO)C(=O)N[C@@H](CO)C(=O)NCC(=O)N[C@@H](C)C(=O)N1CCC[C@H]1C(=O)N1CCC[C@H]1C(=O)N1CCC[C@H]1C(=O)N[C@@H](CO)C(=O)O)C(C)C)[C@@H](C)O [Compound A77] (H-YSHGTFTSDYSKYLD[Aib]KTAQEFV[Aib]WLEDEPSSGAPPPS-OH; N-terminus assumed) | 3.16 | > 1000
